Source: patent US20240287173A1, “THERAPEUTIC AGENT FOR MUSCULAR ATROPHY” (NATIONAL UNIVERSITY CORPORATION KUMAMOTO UNIVERSITY, priority 2021, published 2024)

Columns and labels:
[1] = test system: EDL myofibers derived from N2f/f mice; experiment: Dll4-induced myofiber atrophy on recombinant Dll4-coated plates with γ-secretase inhibitor; format: cell-based, mouse; settings: DAPT 10 μM, 48 hours, recombinant Dll4-coated plate
Procedure: Culture dishes were coated with Notch ligand recombinant protein as reported by Sakai et al. (Sakai et al., PLOS One 12, e0177516 (2017)). Culture dishes were first coated with 10 μg/ml anti-Fc antibody for 1 hour at room temperature, followed by Matrigel (Corning) for 20 minutes. Fc antibody coated dishes were incubated with 5 ng/μl of Fc fusion protein of each Notch ligand (Dll1, Dll4, Jag1 and Jag2) for 1 hour at room temperature. Individual myofibers isolated from EDL muscle were placed in serum-free DMEM and cultured in a CO2 incubator for 48 hours. DAPT (10 µM) was used to inhibit γ-secretase activity in myofibers.
Cultured myofibers were captured using fluorescence microscopy and diameters were quantified from at least 15 individual myofibers using ImageJ (NIH).
Notch, which is a transmembrane receptor, has its transmembrane domain cleaved by γ-secretase, translocates its intracellular domain to the nucleus, and functions as a transcription factor. Therefore, DAPT, a γ-secretase inhibitor, was used to test the influence of γ-secretase activity on Dll4-induced myofiber atrophy. EDL myofibers derived from N2^f/f mice were cultured for 48 hours on a plate coated previously with recombinant Dll4 protein using a medium containing a γ-secretase inhibitor DAPT (10 μM) or PBS.

wild-type mouse HU model = experiment: Hindlimb unloading (HU) muscle atrophy model; format: in vivo; settings: DAPT 10 mg/kg i.p. every other day during HU period
Procedure: (§1) Wild-type mice were used to examine the effects of inhibition of the Notch signaling pathway on muscle in vitro. Ultra-LEAF™ anti-mouse Dll4 antibody (Dll4 blocking antibody) or Ultra-LEAF™ American hamster IgG control antibody (control antibody) was administered intraperitoneally (10 mg/kg body weight) every 4 days in each experiment. Recombinant Dll4-Fc chimeric protein (rDll4) was dissolved in phosphate-buffered saline (PBS) and administered (0.5 mg/kg body weight) every two days. The γ-secretase inhibitor, DAPT, dissolved in 10% ethanol and corn oil, was administered every 2 days (10 mg/kg body weight). […]
(§2) Total RNA was extracted from muscle tissue, isolated myofibers, cultured cells, and freshly sorted cells using ISOGEN II and RNeasy Kit (Qiagen) according to the manufacturer's instructions. […] Quantitative PCR (qPCR) was performed using THUNDERBIRD SYBR qPCR mix (TOYOBO) and real-time PCR detection system (CFX96; Bio Rad). […]
(§3) Isolated PLA or TA muscles were immediately frozen in liquid nitrogen-cooled 2-methylbutane and stored at −80° C. until analysis. […] Immunostained specimens were visualized using Alexa Fluor conjugated secondary antibodies and observed using fluorescence microscopy. Image-J (NIH) was used to quantify myofiber CSA from at least 500 myofibers and count the number of satellite cells per myofiber from at least 15 myofibers.

wild-type mouse DB model = experiment: STZ-induced diabetes (DB) muscle atrophy model; format: in vivo; settings: DAPT 10 mg/kg i.p. every other day during DB induced period
Procedure: as §1
Mice were given a single intraperitoneal injection of STZ (150 mg/kg body weight) at a level that is toxic to insulin-producing pancreatic β-cells, or an equal volume of solvent (0.1 M citrate buffer, pH 4.5) as a control was injected. Mice were monitored for hyperglycemia on day 3 using Accu-chek (Roche), and only mice that achieved casual blood glucose levels>300 mg/dl were used in the experiment. […]
as §2

[2] = test system: wild-type mouse mechanical load-induced muscle hypertrophy model; experiment: Mechanical overload (tenotomy)-induced muscle hypertrophy model; format: in vivo; settings: DAPT 10 mg/kg i.p. after tenotomy, day 14, vs control mice
Procedure: Wild-type mice were used to examine the effects of inhibition of the Notch signaling pathway on muscle in vitro. Ultra-LEAF™ anti-mouse Dll4 antibody (Dll4 blocking antibody) or Ultra-LEAF™ American hamster IgG control antibody (control antibody) was administered intraperitoneally (10 mg/kg body weight) every 4 days in each experiment. Recombinant Dll4-Fc chimeric protein (rDll4) was dissolved in phosphate-buffered saline (PBS) and administered (0.5 mg/kg body weight) every two days. The γ-secretase inhibitor, DAPT, dissolved in 10% ethanol and corn oil, was administered every 2 days (10 mg/kg body weight). Control mice were injected intraperitoneally with an equivalent volume of vehicle in rDll4 or DAPT experiments.
Tenotomy surgery was performed on both legs of mice to induce muscle hypertrophy. In anesthetized mice, an incision was made along the midline of the calf after hair removal. […]
as §3

myofiber atrophy on Dll4 stimulation (myofiber diameter) [1]: resistant to Dll4 stimulation
Structure (SMILES): C[C@H](NC(=O)Cc1cc(F)cc(F)c1)C(=O)N[C@H](C(=O)OC(C)(C)C)c1ccccc1 [DAPT]
muscle atrophy (muscle mass of SOL, PLA, GAS) (wild-type mouse HU model): significant suppression of muscle atrophy
muscle atrophy (muscle mass) (wild-type mouse DB model): significant suppression of muscle atrophy
muscle hypertrophy (overload-induced PLA muscle weight gain) [2]: muscle hypertrophy was exhibited more readily
